Columns and labels:
Mu-type opioid receptor = Mu-type opioid receptor (Cavia porcellus, UniProt P97266); test: Compound was evaluated for the inhibition of Opioid receptor mu 1 binding to guinea pig brain membranes, using [3H]- DAMGO as radioligand
[1] = target: Kappa-type opioid receptor (Cavia porcellus, UniProt P41144); test: Compound was evaluated for the inhibition of Opioid receptor kappa1 binding to guinea pig brain membranes, using 1 nM [3H]- U69,593 as radioligand
[2] = Total binding was evaluated by Phycoerythrin fluorescent labeling of R1EGO mouse thymoma cells; type: functional
[3] = Nonspecific binding was evaluated by Phycoerythrin fluorescent labeling of R1EGO mouse thymoma cells; type: functional
[4] = Percent specific binding was evaluated by Phycoerythrin fluorescent labeling of R1EGO mouse thymoma cells; type: functional
[5] = Specific binding was evaluated by Phycoerythrin fluorescent labeling of R1EGO mouse thymoma cells; type: functional

Kappa-type opioid receptor, sequence (P41144 whole entry): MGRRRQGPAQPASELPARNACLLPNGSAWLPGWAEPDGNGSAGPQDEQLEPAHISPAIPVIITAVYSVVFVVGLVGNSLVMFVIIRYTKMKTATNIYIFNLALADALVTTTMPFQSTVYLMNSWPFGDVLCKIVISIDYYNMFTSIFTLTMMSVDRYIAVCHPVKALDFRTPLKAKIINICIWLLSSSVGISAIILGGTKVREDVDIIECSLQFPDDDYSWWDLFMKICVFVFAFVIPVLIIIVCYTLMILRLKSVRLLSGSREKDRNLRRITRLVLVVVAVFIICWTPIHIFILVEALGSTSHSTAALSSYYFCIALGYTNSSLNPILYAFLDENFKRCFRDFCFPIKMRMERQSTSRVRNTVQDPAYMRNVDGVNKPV
Mu-type opioid receptor, sequence (P97266 whole entry): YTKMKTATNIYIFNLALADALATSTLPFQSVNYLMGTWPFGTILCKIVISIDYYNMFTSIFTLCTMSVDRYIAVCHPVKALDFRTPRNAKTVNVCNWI

| Structure (SMILES) | Ki (Mu-type opioid receptor) | Ki [1] | Total binding [2] | Non-specific binding [3] | Binding [4] | Specific binding [5] |
| --- | --- | --- | --- | --- | --- | --- |
| CN(C(=O)Cc1ccc(Cl)c(Cl)c1)C(CN1CCCC1)c1cccc(N/C(S)=N/c2ccc(-c3c4ccc(=O)cc-4oc4cc(O)ccc34)c(C(=O)O)c2)c1 (stereo unspecified) | 176 nM | 8.2 nM | – | – | – | – |
| CC(=O)Nc1cccc([C@@H](CN2CCCC2)N(C)C(=O)Cc2ccc(Cl)c(Cl)c2)c1 | 8.37 nM | 0.0855 nM | – | – | – | – |
| CC(=O)Nc1cccc([C@H](CN2CCCC2)N(C)C(=O)Cc2ccc(Cl)c(Cl)c2)c1 | 1040 nM | 17.5 nM | – | – | – | – |
| CN(C(=O)Cc1ccc(Cl)c(Cl)c1)[C@@H](CN1CCCC1)c1cccc(N/C(S)=N/c2ccc(-c3c4ccc(=O)cc-4oc4cc(O)ccc34)c(C(=O)O)c2)c1 | 1190 nM | 139 nM | 12 | -5 | – | – |
| CN(C(=O)Cc1ccc(Cl)c(Cl)c1)[C@H](CN1CCCC1)c1cccc(N/C(S)=N/c2ccc(-c3c4ccc(=O)cc-4oc4cc(O)ccc34)c(C(=O)O)c2)c1 | 98 nM | 1.4 nM | 64 | 7 | 91% | 57 |
